# Reference: US11040028B2, “Penicinotam derivative, preparation method and use thereof” (OCEAN UNIVERSITY OF CHINA, priority 2017, dated 2021)
# Tests used:
# Format in all cases: cell-based
# NF-κB = test: Immunological activity test: inhibition of NF-κB activity; conditions: initial concentration of 30 μM; a/b isomers given as first/second symbol; read-out: IC50 (μM), inhibitory activity against NF-κB
# Method in brief: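 IC50 values were derived after initial screening of compounds at 30 μM for NF-κB inhibitory activity, with parthenolide serving as the positive control.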
# [1] = test system: human dermal fibroblasts CCC-ESF-1; test: Anti-fibrosis activity test: inhibition of proliferation of human dermal fibroblasts CCC-ESF-1 (CCK-8); conditions: Fibroblast
# Method in brief: (§1)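 Proliferation read by CCK-8 (2 h, A450) after 48 h compound treatment of cells plated at 2×10^4 cells/mL and allowed 24 h attachment, triplicate per concentration. Inhibition rate derived from absorbance relative to untreated blank, with IC50 fitted; pirfenidone as positive control.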
# [2] = test system: human lung fibroblasts HFL1; test: Anti-fibrosis activity test: inhibition of proliferation of human lung fibroblasts HFL1 (CCK-8); conditions: Homo sapiens, HFL1, 48 h
# Method in brief: as §1
# [3] = test system: mouse macrophages (RAW264.7); test: Lipopolysaccharide-induced NO secretion in macrophages (Griess); conditions: Mus musculus, RAW264.7, 24 h, RAW264.7, LPS 1 μg/ml, a/b isomers given as first/second symbol, read-out: IC50 (μM), inhibition of lipopolysaccharide-induced NO secretion in macrophages
# Method in brief: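 Percent inhibition of NO release was measured by Griess absorbance at 548 nm in supernatants. Cells were mouse RAW264.7 macrophages in 10% FBS DMEM, treated with graded compound concentrations and activated by LPS (1 μg/ml) for 24 h.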
# [4] = test system: human embryonic lung fibroblast IMR-90; test: Anti-fibrosis activity test: inhibition of proliferation of human embryonic lung fibroblast IMR-90 (CCK-8)
# Method in brief: as §1
# [5] = test system: human hepatic stellate cells LX-2; test: Anti-fibrosis activity test: inhibition of proliferation of human hepatic stellate cells LX-2 (CCK-8); conditions: Homo sapiens, 48 h
# Method in brief: as §1
# [6] = test system: human fibrosarcoma cells HT-1080; test: Anti-fibrosis activity test: inhibition of proliferation of human fibrosarcoma cells HT-1080 (CCK-8); conditions: Homo sapiens, HT-1080, 48 h
# Method in brief: as §1
# [7] = test system: cardiac fibroblast RAT-iCell-C002; test: Anti-fibrosis activity test: inhibition of proliferation of cardiac fibroblast RAT-iCell-C002 (CCK-8); conditions: Cardiac fibroblast, 48 h
# Method in brief: as §1
# BHK-21 cells = test: Anti-fibrosis activity test: inhibition of BHK-21 cell proliferation (CCK-8); conditions: Mesocricetus auratus, BHK-21, 48 h
# Method in brief: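 BHK-21 cells seeded at 2×10^4 cells/mL, allowed to adhere 24 h at 37° C, 5% CO2, then exposed to compounds at graded concentrations in triplicate for 48 h. CCK-8 added for 2 h and absorbance read at 450 nm; inhibition rate taken as (1−Ai/Ao)×100% and IC50 fitted.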
# [8] = human dermal fibroblasts CCC-ESF-1, CCK-8, 48 hours
# [9] = human lung fibroblasts HFL1, CCK-8, 48 hours
# [10] = human embryonic lung fibroblast IMR-90, CCK-8, 48 hours
# [11] = human hepatic stellate cells LX-2, CCK-8, 48 hours
# [12] = human fibrosarcoma cells HT-1080, CCK-8, 48 hours
# [13] = cardiac fibroblast RAT-iCell-C002, CCK-8, 48 hours
# [14] = CCK-8, 48 hours after administration
Compound,IC50 (NF-κB),"IC50 [1, 8]","IC50 [2, 9]",IC50 [3],"IC50 [4, 10]","IC50 [5, 11]","IC50 [6, 12]","IC50 [7, 13]",IC50 (BHK-21 cells; [14]),"IC50 ([1]; Homo sapiens, CCC-ESF-1 cells, 48 h, CCK-8)","IC50 ([2]; HFL1 cells, 48 h, CCK-8)","IC50 ([4]; Homo sapiens, IMR-90 cells, 48 h, CCK-8)","IC50 ([5]; LX-2, 48 h, LX-2 cells, CCK-8)","IC50 ([6]; HT-1080 cells, 48 h, CCK-8)","IC50 ([7]; RAT-iCell-C002 cells, CCK-8)","IC50 (BHK-21 cells; 48 h, CCK-8)"
"CCOC(=O)/C=C/Cn1c2c(c(=O)c3ccccc31)C(=O)n1cccc1-2 [Compound 661a, Ethyl (E)-4-(9,10-dioxo-9H-pyrrolizino[1,2-b]quinolin-4(10H)-yl)but-2-enoate]",0.1 to 1 µM,0.05 to 5 mM,0.05 to 5 mM,1 to 10 µM,0.05 to 5 mM,0.05 to 5 mM,0.05 to 5 mM,0.05 to 5 mM,< 0.05 mM,–,–,–,–,–,–,–
"CCOC(=O)/C=C/COc1c2c(nc3ccccc13)-c1cccn1C2=O [Compound 661b, ethyl (E)-4-((10-oxo-10H-pyrrolizino[1,2-b]quinolin-9-yl)oxy)but-2-enoate]",1 to 10 µM,0.05 to 5 mM,0.05 to 5 mM,1 to 10 µM,0.05 to 5 mM,0.05 to 5 mM,0.05 to 5 mM,0.05 to 5 mM,0.05 to 5 mM,–,–,–,–,–,–,–
"O=C1c2c(n(CCN3CCOCC3)c3ccccc3c2=O)-c2cccn21 [Compound 662a, 4-(2-Morpholinoethyl)-9H-pyrrolizino[1,2-b]quinoline-9,10(4H)-dione]",0.1 to 1 µM,0.05 to 5 mM,0.05 to 5 mM,1 to 10 µM,0.05 to 5 mM,0.05 to 5 mM,0.05 to 5 mM,0.05 to 5 mM,0.05 to 5 mM,–,–,–,–,–,–,–
"O=C1c2c(nc3ccccc3c2OCCN2CCOCC2)-c2cccn21 [Compound 662b, 9-(2-morpholinoethoxy)-10H-pyrrolizino[1,2-b]quinolin-10-one]",1 to 10 µM,0.05 to 5 mM,0.05 to 5 mM,1 to 10 µM,0.05 to 5 mM,0.05 to 5 mM,0.05 to 5 mM,0.05 to 5 mM,0.05 to 5 mM,–,–,–,–,–,–,–
"O=C1c2c(n(CCCN3CCOCC3)c3ccccc3c2=O)-c2cccn21 [Compound 663a, 4-(3-Morpholinopropyl)-9H-pyrrolizino[1,2-b]quinoline-9,10(4H)-dione]",1 to 10 µM,0.05 to 5 mM,0.05 to 5 mM,0.1 to 1 µM,0.05 to 5 mM,0.05 to 5 mM,0.05 to 5 mM,0.05 to 5 mM,< 0.05 mM,–,–,–,–,–,–,–
"O=C1c2c(nc3ccccc3c2OCCCN2CCOCC2)-c2cccn21 [Compound 663b, 9-(3-morpholinopropoxy)-10H-pyrrolizino[1,2-b]quinolin-10-one]",1 to 10 µM,0.05 to 5 mM,0.05 to 5 mM,0.1 to 1 µM,0.05 to 5 mM,0.05 to 5 mM,0.05 to 5 mM,0.05 to 5 mM,0.05 to 5 mM,–,–,–,–,–,–,–
"O=C1c2c(n(CCCCN3CCOCC3)c3ccccc3c2=O)-c2cccn21 [Compound 664a, 4-(4-Morpholinobutyl)-9H-pyrrolizino[1,2-b]quinoline-9,10(4H)-dione]",1 to 10 µM,0.05 to 5 mM,0.05 to 5 mM,0.1 to 1 µM,0.05 to 5 mM,0.05 to 5 mM,0.05 to 5 mM,0.05 to 5 mM,0.05 to 5 mM,–,–,–,–,–,–,–
"O=C1c2c(nc3ccccc3c2OCCCCN2CCOCC2)-c2cccn21 [Compound 664b, 9-(4-morpholinobutoxy)-10H-pyrrolizino[1,2-b]quinolin-10-one]",1 to 10 µM,0.05 to 5 mM,0.05 to 5 mM,10 to 50 µM,0.05 to 5 mM,0.05 to 5 mM,0.05 to 5 mM,0.05 to 5 mM,0.05 to 5 mM,–,–,–,–,–,–,–
"O=C1c2c(n(CCN3CCCCC3)c3ccccc3c2=O)-c2cccn21 [Compound 665a, 4-(2-(Piperidin-1-yl)ethyl)-9H-pyrrolizino[1,2-b]quinoline-9,10(4H)-dione]",0.1 to 1 µM,–,–,1 to 10 µM,–,–,–,–,–,0.05 to 5 mM,0.05 to 5 mM,0.05 to 5 mM,< 0.05 mM,0.05 to 5 mM,0.05 to 5 mM,0.05 to 5 mM
